Results: patent EP2343287A1, “New 2-aminothiadiazole derivatives” (Almirall, S.A., priority 2009, dated 2011)

molecular target: S1P1 (Homo sapiens, UniProt P21453); assay: 35S-GTPyS binding assay; type: biochemical; conditions: membranes; compounds at 0.1nM-10µM; 0.1nM 35S-GTPyS; 10µM S1P used as 100% maximum efficacy; 90 min at room temperature
Method: The effect of the compounds was measured using a 35S-GTPyS binding assay. Briefly, membranes were incubated in a buffer containing 20 mM HEPES pH 7.4, 100 mM NaCl, 10 mM MgCl2, 10µM GDP, 50µg/ml saponin and 0.2% fatty acid-free BSA at various concentrations (0.1nM-10µM) and 0.1nM 35S-GTPyS. 10µM S1P was used as 100% maximum efficacy. The assay was incubated for 90 min at room temperature with gentle mixing, and terminated by filtrating the reaction mixture through GF/C filter plates using the Manifold Filtration System. The filters were immediately washed with sodium phosphate pH 7.4 buffers. After drying the filter plate's scintillant liquid were added to each well and 35S-GTPyS binding was measured on a Trilux Scintillation Counter.

S1P1, sequence (P21453 whole entry, species assumed): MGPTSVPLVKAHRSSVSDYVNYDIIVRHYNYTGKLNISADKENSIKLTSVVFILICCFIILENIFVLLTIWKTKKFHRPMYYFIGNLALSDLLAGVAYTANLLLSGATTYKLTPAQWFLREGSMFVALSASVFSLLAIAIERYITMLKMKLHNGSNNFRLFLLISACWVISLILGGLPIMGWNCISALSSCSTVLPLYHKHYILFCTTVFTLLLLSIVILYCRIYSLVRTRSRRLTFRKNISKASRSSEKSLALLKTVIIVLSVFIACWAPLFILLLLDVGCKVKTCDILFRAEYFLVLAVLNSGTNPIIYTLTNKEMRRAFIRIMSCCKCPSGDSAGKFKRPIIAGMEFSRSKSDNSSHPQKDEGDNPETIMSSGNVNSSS

Row | SMILES | EC50
1 | CCCCN(Cc1ccccc1Cl)c1nnc(-c2cc(C)c(OC)c(C)c2)s1 [Example 1, N-Butyl-N-(2-chlorobenzyl)-5-(4-methoxy-3,5-dimethylphenyl)-1,3,4-thiadiazol-2-amine] | 0.039 µM
2 | CCCCN(Cc1ccccc1F)c1nnc(-c2cc(C)c(OCCN3CC(C(=O)O)C3)c(C)c2)s1 [Example 35, 1-[2-(4-{5-[Butyl(2-fluorobenzyl)amino]-1,3,4-thiadiazol-2-yl}-2,6-dimethyl-phenoxy)ethyl]azetidine-3-carboxylic acid] | 0.033 µM
3 | CCCCN(c1nnc(-c2ccc(CN3CC(C(=O)O)C3)cc2)s1)S(=O)(=O)Cc1ccccc1 [Example 43, 1-(4-{5-[(Benzylsulfonyl)(butyl)amino]-1,3,4-thiadiazol-2-yl}benzyl)azetidine-3-carboxylic acid] | 0.123 µM

Now those with a lower EC50, led by results:

Row | EC50 | SMILES
4 | 0.032 µM | CCCCN(Cc1ccccc1Cl)c1nnc(-c2cc(C)c(OCC(O)CN)c(C)c2)s1 (stereo not shown) [Example 34, 1-Amino-3-(4-{5-[butyl(2-chlorobenzyl)amino]-1,3,4-thiadiazol-2-yl}-2,6-dimethyl-phenoxy)propan-2-ol]
5 | 0.018 µM | CCCCN(Cc1c(Cl)cccc1Cl)c1nnc(-c2ccnc(C)c2)s1 [Example 16, N-Butyl-N-(2,6-dichlorobenzyl)-5-(2-methylpyridin-4-yl)-1,3,4-thiadiazol-2-amine]
6 | 0.015 µM | CCCCN(Cc1ccccc1Cl)c1nnc(-c2cc(C)c(OC[C@H](O)CO)c(C)c2)s1 [Example 29, (2R)-3-(4-{5-[Butyl(2-chlorobenzyl)amino]-1,3,4-thiadiazol-2-yl}-2,6-dimethyl-phenoxy)propane-1,2-diol]
7 | 0.005 µM | CCCCN(Cc1ccccc1F)c1nnc(-c2cc(C)c(OCCNCCC(=O)O)c(C)c2)s1 [Example 36, N-[2-(4-{5-[Butyl(2-fluorobenzyl)amino]-1,3,4-thiadiazol-2-yl}-2,6-dimethyl-phenoxy)ethyl]-beta-alanine]
